# Data taken from US20090311237A1, “Combination therapy using a soluble hyaluronidase and a bisphosphonate” (priority 2008, published 2009).
# Legend:
# Sprague Dawley rats [1] = experiment: Semi-quantitative histopathology of skin at injection site after ID zoledronic acid with or without rHuPH20; type: in vivo; set-up: key: —: Dash indicates no incidence of the indicated observation; conditions: rat ID; ZA 0.4 mg/mL; rHuPH20 0 U/ml; 4 days
# Procedure: (§1) Nine to ten week old female Sprague Dawley rats, having approximate body weight of 200-250 grams, were employed for the study. One day prior to injection, rats were shaved and hair on the back and flank area were removed by Nair® cream (exposure less than 1 min to depilation cream) followed by deep wash with warm tap water. On the day of dosing, all rats were injected intradermally in flank area (one or two injection spots per side), with 0.1 or 0.2 mL as indicated of zoledronic acid solution, with or without rHuPH20, at each corresponding concentration as shown in study design table. Injection site appearance was observed and quantified by blind assessment each day following the injection until the end of the study, at which time animals were sacrificed and the skin around the dosing area as well as a part of the skin that was not effected by the dosing were collected and fixed in 10% neutral buffered formalin (NBF) and further embedded in paraffin, 5 μm sections were cut for H&E stain and histopathology evaluation.
# Lesion area was calculated by the following formula: W×L×¼π. Quantitative results were analyzed using one-way analysis of variance (ANOVA) method, followed by Dunnett's comparison method (Prizm 4 program). […] Histopathologic findings were characterized by semi-quantitative analysis of necrosis and infiltration in the skin tissue. […]
# Sprague Dawley rats [2] = experiment: Injection site reactions (gross ISR incidence, lesion area) after intradermal injection of zoledronic acid with or without rHuPH20; type: in vivo, rat; conditions: for AUC (accumulated ISR area over 6 days) / Peak lesion area: rat ID 0.1 mL, rHuPH20 0 U/mL
# Procedure: A rodent model of local injection site injury caused by ZA injection was employed for the study. […] Injection into the dermis facilitates external visualization and assessment of the irritant.
# as §1
# (§2) Lesion area was calculated by the following formula: W×L×¼π. Quantitative results were analyzed using one-way analysis of variance (ANOVA) method, followed by Dunnett's comparison method (Prizm 4 program). The probability values of less than 0.05 (two-tailed) were used as the critical level of significance for all tests. Groups with a sample size of two were excluded from analysis. If the sample size was 2 for the control group, there were no statistical analyses at that interval for any of the groups. Histopathologic findings were characterized by semi-quantitative analysis of necrosis and infiltration in the skin tissue. The incidences of each finding were compared with control groups by Chi-square test.
# (§3) Prior to ZA intradermal injection, rats were randomized by body weight into 7 groups of 1 or 2 rats per group (Table 2). Rats were injected with either 0.1 mL or 0.2 mL of each corresponding concentration intradermally at two separate locations on each shaved flank side for a total of 4 injections for each animal. Injection sites were observed daily post-injection for four days. Pictures of injection site reaction (ISR) area were captured by digital camera and lesion area was scored for induration, erythema, or ulceration. Two perpendicular diameters (width & length) of injection site lesion were measured by microcaliper. The lesion area was defined as the area bounded by the outer edge of the erythemic zone. Upon completion of the study, the animals were euthanized and skin at the injection site and from an untreated area of the back of the rat were excised, mounted flat onto a piece of cardboard, and placed in 10% NBF.
# (§4) A series of experiments were conducted in which various dosing concentrations of rHuPH20 were tested for the ability to reduce acute injection site lesions. Prior to ZA intra-dermal injection, rats were randomized by body weight into 11 groups of 2 rats per group. Rats were injected intradermally with 0.1 mL of each co-formulated solution as shown in Table 5 and observed daily with ISR development assessed as in Section B. Four days after injection, rats were sacrificed and the skin at the injection site as well as untreated skin from the back was excised, mounted flat onto a piece of cardboard, and placed in 10% NBF.
# Prior to ZA intra-dermal injection, rats were randomized by body weight into 6 groups of 3 rats per group (Table 6). Rats were intradermally injected with 0.1 mL of each corresponding co-formulated solution at two separate locations, two on each shaved flank side, for a total of 4 injections for each animal. Injection sites were observed daily with ISR development assessed as in Section B for 6 days. […]
# Sprague Dawley rats [3] = experiment: Semi-quantitative histopathology of skin at injection site after ID zoledronic acid with or without rHuPH20; type: in vivo; set-up: key to Necrosis: Mid-dermis / Infiltration: Focal / Infiltration: Muscular / Necrosis: Epidermis / Infiltration: Skin Diffuse / Infiltration: Muscle: —: Dash indicates no incidence of indicated finding; key to Infiltration: Skin Focal: —: Dash indicates no incidence of the indicated observation; conditions: rat ID, 4 days
# Procedure: as §1, §2, §3
# as §4, with “NBF. […]” for “NBF.”
structure (smiles),measurement,setting,value
"O=P(O)(O)C(O)(Cn1ccnc1)P(=O)(O)O [ZA, 1-hydroxy-2-(1H-imidazol-1-yl)ethylidene-1,1-bisphosphonic acid]",Necrosis: Superficial dermis,Sprague Dawley rats [1],—
same,AUC (accumulated ISR area over 6 days),Sprague Dawley rats [2]; ZA 0.05 mg/mL,110.8 ± 5.6 mm^2 · day
same,Peak lesion area,Sprague Dawley rats [2]; ZA 0.05 mg/mL,28.8 ± 1.8 mm^2
same,AUC (accumulated ISR area over 6 days),Sprague Dawley rats [2]; ZA 0.1 mg/mL,108.3 ± 6.9 mm^2 · day
same,Peak lesion area,Sprague Dawley rats [2]; ZA 0.1 mg/mL,32.3 ± 2.7 mm^2
same,AUC (accumulated ISR area over 6 days),Sprague Dawley rats [2]; ZA 0.4 mg/mL,226.5 ± 9.1 mm^2 · day
same,Peak lesion area,Sprague Dawley rats [2]; ZA 0.4 mg/mL,62.9 ± 5.1 mm^2
same,erythema area,"Sprague Dawley rats [2]; rat ID, ZA alone 0.05-0.2 mg/ml",~35 mm^2
same,Infiltration: Muscle,"Sprague Dawley rats [3]; ZA 0.05 mg/mL, rHuPH20 0 U/ml",—
same,Infiltration: Skin Diffuse,"Sprague Dawley rats [3]; ZA 0.05 mg/mL, rHuPH20 0 U/ml",—
same,Necrosis: Epidermis,"Sprague Dawley rats [3]; ZA 0.05 mg/mL, rHuPH20 0 U/ml",—
same,Infiltration: Skin Focal,"Sprague Dawley rats [3]; ZA 0.4 mg/mL, rHuPH20 0 U/ml",—
same,Infiltration: Muscular,Sprague Dawley rats [3]; ZA alone 0.05 mg/mL,—
same,Necrosis: Mid-dermis,Sprague Dawley rats [3]; ZA alone 0.05 mg/mL,—
same,Infiltration: Focal,Sprague Dawley rats [3]; ZA alone 0.1 mg/mL,—
same,Necrosis: Mid-dermis,Sprague Dawley rats [3]; ZA alone 0.1 mg/mL,—
same,Infiltration: Focal,Sprague Dawley rats [3]; ZA alone 0.2 mg/mL,—
same,Necrosis: Mid-dermis,Sprague Dawley rats [3]; ZA alone 0.2 mg/mL,—
same,Infiltration: Focal,Sprague Dawley rats [3]; ZA alone 0.4 mg/mL,—
same,Infiltration: Focal,Sprague Dawley rats [3]; ZA alone 0.6 mg/mL,—
same,Infiltration: Focal,Sprague Dawley rats [3]; ZA alone 0.8 mg/mL,—
